Assay results from ChEMBL document CHEMBL5257034, “Hybrid molecules: The privileged scaffolds for various pharmaceuticals” (Eur J Med Chem, 2016).
≈ marks a conversion by molar mass, not a printed value.

How the values were obtained:
[1] = test system: Aspergillus niger; test: Antifungal activity against Aspergillus niger assessed as zone of inhibition; assay type: functional
[2] = test system: Candida albicans; test: Antifungal activity against Candida albicans assessed as zone of inhibition; assay type: functional
[3] = test system: Mycobacterium tuberculosis; test: Antibacterial activity against Mycobacterium tuberculosis H37Rv; assay type: functional
[4] = test system: Mus musculus; test: Antiinflammatory activity against ear oedema mouse model assessed as inhibition of xylene induced edema; assay type: functional
[5] = test system: Mycobacterium tuberculosis; test: Antibacterial activity against Mycobacterium tuberculosis H37Rv by alamar blue method; assay type: functional
[6] = test system: Candida albicans; test: Antifungal activity against Candida albicans; assay type: functional, organism-based
[7] = test system: Plasmodium falciparum; test: Antimalarial activity against chloroquine-sensitive Plasmodium falciparum 3D7; assay type: functional
[8] = test system: MCF7; test: Cytotoxicity against human MCF7 cells measured 24 hrs by MTT assay; assay type: functional, cell-based; conditions: MCF7, 24 h
[9] = test system: Candida albicans; test: Antifungal activity against Candida albicans ATCC 76615 incubated for 24 hrs by microbroth dilution method; assay type: functional
[10] = test system: Meyerozyma guilliermondii; test: Antifungal activity against Meyerozyma guilliermondii assessed as zone of inhibition; assay type: functional
[11] = test system: Plasmodium falciparum; test: Antiplasmodial activity against Plasmodium falciparum W2 infected in red blood cells (unknown origin) incubated for 72 hrs by LDH assay; assay type: functional, organism-based, Red blood cell; conditions: W2, Erythrocyte

With `COc1ccc(-c2nc(-c3ccccc3)c(-c3ccccc3)n2C(NN2CCCCC2)c2ccccc2)c(OC)c1OC` (stereo unspecified) the “inhibition zone (IZ)” value [1] was 26 mm and the “inhibition zone (IZ)” value [2] was 29 mm.

In the case of `NC(=O)c1cnccn1` [PYRAZINAMIDE], the MIC [3] is reported as 50.1 µM.

With `CS(=O)(=O)c1ccc(-c2nc(S(C)(=O)=O)nn2-c2ccc(Br)cc2)cc1` the “inhibition (INH)” value [4] was 70.8%.

With `c1c[nH]c(Cc2nc3ccccc3c3cc[nH]c23)c1` the MIC [5] was 3.3 µg/mL (≈ 13.3 µM).

For `CSc1nc(-c2ccc(S(N)(=O)=O)cc2)n(-c2ccc(F)cc2)n1`, the “inhibition (INH)” value [4] was 75%.

`O=C(/C=C/c1ccc(Cl)cc1Cl)c1ccc(OCC(O)(Cn2cncn2)c2ccc(F)cc2F)cc1` (stereo unspecified) gave an MIC50 [6] of 0.12 µg/mL (≈ 0.226 µM).

Work on `O=C1Nc2cc3c(-c4ccccc4)c(-c4ccccc4)oc(=O)c3cc2C(c2ccc(Cl)cc2)N1` (stereo unspecified) yielded an MIC [3] of 50 µg/mL.

`O=C1Oc2cc(OCCN(N3CCOCC3)N3CCOCC3)ccc2C2c3ccccc3OC12` (stereo unspecified) was tested, and the MIC [3] was 3.12 µg/mL.

`COc1ccc(-c2nc(-c3ccccc3)c(-c3ccccc3)n2C(NN2CCNCC2)c2ccccc2)c(OC)c1OC` (stereo unspecified) was tested, and the “inhibition zone (IZ)” value [1] was 27 mm and the “inhibition zone (IZ)” value [2] was 28 mm.

`CCN(CC)CCCC(C)Nc1ccnc2cc(Cl)ccc12` (stereo unspecified) [CHLOROQUINE] was tested, and the MIC [7] was 0.125 µg/mL (≈ 0.391 µM).

For `C[C@@H]([C@H](N)C(=O)N[C@H](C(=O)O)[C@H]1O[C@@H](n2ccc(=O)[nH]c2=O)[C@H](O)[C@@H]1O)[C@H](O)c1ccc(O)cn1` [NIKKOMYCIN], the IC50 [6] was 0.393 µg/mL (≈ 0.793 µM).

With `CS(=O)(=O)c1ccc(-c2nc(S(C)(=O)=O)nn2-c2ccc(Cl)cc2)cc1` the “inhibition (INH)” value [4] was 77.2%.

`Cc1ccc(-c2cc(C(F)(F)F)nn2-c2ccc(S(N)(=O)=O)cc2)cc1` [CELECOXIB] was tested, and the “inhibition (INH)” value [4] was 64.9%.

Work on `COc1cc(/C=C/c2ccc(O)cc2)cc(OC)c1` [PTEROSTILBENE] yielded an IC50 [8] of 65 µM.

In the case of `NC(=O)OC[C@H](O)[C@@H](O)[C@H](N)C(=O)N[C@H](C(=O)O)[C@H]1O[C@@H](n2cc(C(=O)O)c(=O)[nH]c2=O)[C@H](O)[C@@H]1O`, the MIC [6] is reported as 320 µg/mL (≈ 614 µM).

`Clc1ccc(Cn2c[n+](CCCCCC[n+]3cnn(Cc4ccc(Cl)cc4Cl)c3)cn2)c(Cl)c1.[Br-].[Br-]` showed an MIC [9] of 22.9 µg/mL.

For `CC1(C)CC[C@]2(C(=O)O)CC[C@]3(C)C(=CC[C@@H]4[C@@]5(C)CC[C@H](OC(=O)/C=C/c6ccccc6)C(C)(C)[C@@H]5CC[C@]43C)[C@@H]2C1`, the “inhibition zone (IZ)” value [10] was 31 mm.

In the case of `O=C(O)c1cn(C2CC2)c2cc(N3CCNCC3)c(F)cc2c1=O` [CIPROFLOXACIN], the MIC [5] is reported as 4.7 µg/mL (≈ 14.2 µM).

In the case of `COc1ccc(-c2nc(-c3ccccc3)c(-c3ccccc3)n2C(NN(c2ccccc2)c2cccc3ccccc23)c2ccccc2)c(OC)c1OC` (stereo unspecified), the “inhibition zone (IZ)” value [1] is reported as 24 mm and the “inhibition zone (IZ)” value [2] is reported as 20 mm.

With `O=C(NN1C(=O)CSC1c1ccc([N+](=O)[O-])cc1)c1ccc(NCN2c3ccccc3Sc3ccccc32)cc1` (stereo unspecified) the MIC [3] was 3.12 µg/mL.

Work on `O=C1Nc2cc3c(-c4ccccc4)c(-c4ccccc4)oc(=O)c3cc2C(c2ccccc2Cl)N1` (stereo unspecified) yielded an MIC [3] of 62.5 µg/mL.

`NNC(=O)c1ccncc1` [ISONIAZID] gave an MIC [3] of 0.2 µg/mL.

Compound `COc1cc(Nc2nc(OCc3cn(CCCNc4cccc5cc(Cl)ccc45)nn3)nc(N3CCOCC3)n2)cc(OC)c1` has an IC50 [11] of 1.73 µM.
